Assay results from article PMC8222254, “Self-assembly of an anion receptor with metal-dependent kinase inhibition and potent in vitro anti-cancer properties” (Nature Communications, 2021).
Values joined by “and” are separate entries in the source; they are usually repeats but may differ in a detail not shown here. Equal entries are not always repeated.

How the values were obtained:
Assay in all cases: Kinase inhibition screen, cell-free 33P ATP assay at 10 μM
Assay type in all cases: biochemical
[1] = biological target: T1, 140 purified human kinases (Homo sapiens, UniProt O43781)
T1 sequence (O43781 1-588): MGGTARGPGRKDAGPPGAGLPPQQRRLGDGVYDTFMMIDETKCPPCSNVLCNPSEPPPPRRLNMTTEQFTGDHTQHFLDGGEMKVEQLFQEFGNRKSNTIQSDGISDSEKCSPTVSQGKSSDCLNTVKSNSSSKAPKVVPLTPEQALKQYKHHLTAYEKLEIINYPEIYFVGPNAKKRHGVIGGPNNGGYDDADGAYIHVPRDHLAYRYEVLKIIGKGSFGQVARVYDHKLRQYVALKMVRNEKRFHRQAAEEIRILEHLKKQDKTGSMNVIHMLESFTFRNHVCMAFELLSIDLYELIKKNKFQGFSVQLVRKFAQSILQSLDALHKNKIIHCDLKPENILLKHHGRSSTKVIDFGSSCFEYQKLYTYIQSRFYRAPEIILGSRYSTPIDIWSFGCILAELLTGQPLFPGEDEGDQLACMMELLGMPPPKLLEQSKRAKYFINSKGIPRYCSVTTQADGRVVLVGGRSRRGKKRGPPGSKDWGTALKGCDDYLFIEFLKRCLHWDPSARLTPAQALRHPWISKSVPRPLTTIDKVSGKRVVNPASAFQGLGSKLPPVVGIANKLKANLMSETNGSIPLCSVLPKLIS
Outline: (§1)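 Each complex tested in duplicate at 10 μM; cell-free radiometric assay using ^33P ATP on purified enzymes. Hits mapped by HGNC symbol onto the kinome tree.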

[2] = biological target: 140 purified human kinases (Homo sapiens, UniProt P11309)
Outline: as §1

[3] = biological target: 140 purified human kinases (Homo sapiens, UniProt P16234); settings: PDGFRA
Outline: as §1

[4] = biological target: T2, 140 purified human kinases (Homo sapiens, UniProt P52333)
T2 sequence (P52333 1-1124): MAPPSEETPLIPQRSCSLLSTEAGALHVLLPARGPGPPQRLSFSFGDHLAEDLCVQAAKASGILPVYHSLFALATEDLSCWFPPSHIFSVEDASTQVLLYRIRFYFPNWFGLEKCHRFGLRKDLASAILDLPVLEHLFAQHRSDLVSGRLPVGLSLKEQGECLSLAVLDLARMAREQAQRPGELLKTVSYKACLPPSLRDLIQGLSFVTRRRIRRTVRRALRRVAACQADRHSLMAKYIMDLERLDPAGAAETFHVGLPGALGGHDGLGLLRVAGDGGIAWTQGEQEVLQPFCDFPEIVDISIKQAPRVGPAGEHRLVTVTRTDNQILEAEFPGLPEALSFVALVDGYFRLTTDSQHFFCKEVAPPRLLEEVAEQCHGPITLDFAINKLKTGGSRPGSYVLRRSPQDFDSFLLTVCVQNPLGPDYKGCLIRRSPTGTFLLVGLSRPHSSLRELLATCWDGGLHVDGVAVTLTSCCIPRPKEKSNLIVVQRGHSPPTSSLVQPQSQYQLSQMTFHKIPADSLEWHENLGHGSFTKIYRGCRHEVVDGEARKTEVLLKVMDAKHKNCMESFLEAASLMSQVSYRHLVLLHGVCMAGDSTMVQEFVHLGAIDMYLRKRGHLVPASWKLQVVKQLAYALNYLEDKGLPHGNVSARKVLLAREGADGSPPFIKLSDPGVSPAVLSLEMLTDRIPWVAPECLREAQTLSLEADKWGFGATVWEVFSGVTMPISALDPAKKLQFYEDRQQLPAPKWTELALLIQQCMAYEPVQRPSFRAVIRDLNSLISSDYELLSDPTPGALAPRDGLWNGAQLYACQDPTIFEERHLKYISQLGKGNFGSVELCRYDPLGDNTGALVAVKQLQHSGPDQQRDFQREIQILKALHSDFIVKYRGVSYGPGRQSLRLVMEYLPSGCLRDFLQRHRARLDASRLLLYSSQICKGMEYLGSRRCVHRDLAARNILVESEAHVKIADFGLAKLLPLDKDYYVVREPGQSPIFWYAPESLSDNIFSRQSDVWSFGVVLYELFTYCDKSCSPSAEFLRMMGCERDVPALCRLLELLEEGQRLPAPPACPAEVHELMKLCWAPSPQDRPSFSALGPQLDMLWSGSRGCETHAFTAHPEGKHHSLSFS
Outline: as §1

[5] = biological target: 140 purified human kinases (Homo sapiens, UniProt P53779)
Outline: as §1

[6] = biological target: 140 purified human kinases (Homo sapiens, UniProt Q06187); settings: BTK
Outline: as §1

[7] = biological target: 140 purified human kinases (Homo sapiens, UniProt Q16513)
Outline: as §1

[8] = biological target: 140 purified human kinases (Homo sapiens, UniProt Q86Z02)
Outline: as §1

140 purified human kinases (Homo sapiens, UniProt P11309), sequence (P11309 whole entry): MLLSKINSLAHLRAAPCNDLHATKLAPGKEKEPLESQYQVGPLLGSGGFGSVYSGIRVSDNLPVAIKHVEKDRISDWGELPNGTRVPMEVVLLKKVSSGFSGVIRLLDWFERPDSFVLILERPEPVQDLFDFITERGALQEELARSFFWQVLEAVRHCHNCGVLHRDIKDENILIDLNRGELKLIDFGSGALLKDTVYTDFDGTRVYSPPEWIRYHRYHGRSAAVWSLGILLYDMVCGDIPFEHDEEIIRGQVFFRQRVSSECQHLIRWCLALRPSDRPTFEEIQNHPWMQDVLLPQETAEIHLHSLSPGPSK
140 purified human kinases (Homo sapiens, UniProt Q16513), sequence (Q16513 whole entry): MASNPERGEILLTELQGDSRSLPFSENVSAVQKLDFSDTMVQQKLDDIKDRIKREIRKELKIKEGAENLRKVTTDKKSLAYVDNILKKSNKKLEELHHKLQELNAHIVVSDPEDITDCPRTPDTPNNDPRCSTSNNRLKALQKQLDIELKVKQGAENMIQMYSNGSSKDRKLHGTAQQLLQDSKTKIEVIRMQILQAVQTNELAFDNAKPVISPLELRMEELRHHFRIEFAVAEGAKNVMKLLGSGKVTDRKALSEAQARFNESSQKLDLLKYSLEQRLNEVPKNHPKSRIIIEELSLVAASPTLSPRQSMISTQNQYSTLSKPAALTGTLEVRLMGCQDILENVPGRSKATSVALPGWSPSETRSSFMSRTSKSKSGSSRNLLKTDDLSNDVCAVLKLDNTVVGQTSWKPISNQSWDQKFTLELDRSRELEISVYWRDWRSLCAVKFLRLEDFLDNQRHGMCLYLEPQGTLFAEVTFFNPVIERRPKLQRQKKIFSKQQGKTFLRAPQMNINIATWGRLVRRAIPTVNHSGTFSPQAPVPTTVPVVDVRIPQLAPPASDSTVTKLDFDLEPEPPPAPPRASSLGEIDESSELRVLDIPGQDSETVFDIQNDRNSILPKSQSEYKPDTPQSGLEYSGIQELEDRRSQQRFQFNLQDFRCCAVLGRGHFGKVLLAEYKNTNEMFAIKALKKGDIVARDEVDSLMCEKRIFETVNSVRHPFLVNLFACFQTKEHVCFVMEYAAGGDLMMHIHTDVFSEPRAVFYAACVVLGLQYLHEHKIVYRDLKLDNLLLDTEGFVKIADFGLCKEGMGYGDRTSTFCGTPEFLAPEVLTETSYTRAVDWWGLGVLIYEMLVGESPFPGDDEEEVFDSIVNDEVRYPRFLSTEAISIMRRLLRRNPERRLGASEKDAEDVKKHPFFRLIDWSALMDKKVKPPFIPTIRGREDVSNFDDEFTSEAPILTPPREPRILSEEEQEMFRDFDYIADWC
140 purified human kinases (Homo sapiens, UniProt P16234), sequence (P16234 24-1089): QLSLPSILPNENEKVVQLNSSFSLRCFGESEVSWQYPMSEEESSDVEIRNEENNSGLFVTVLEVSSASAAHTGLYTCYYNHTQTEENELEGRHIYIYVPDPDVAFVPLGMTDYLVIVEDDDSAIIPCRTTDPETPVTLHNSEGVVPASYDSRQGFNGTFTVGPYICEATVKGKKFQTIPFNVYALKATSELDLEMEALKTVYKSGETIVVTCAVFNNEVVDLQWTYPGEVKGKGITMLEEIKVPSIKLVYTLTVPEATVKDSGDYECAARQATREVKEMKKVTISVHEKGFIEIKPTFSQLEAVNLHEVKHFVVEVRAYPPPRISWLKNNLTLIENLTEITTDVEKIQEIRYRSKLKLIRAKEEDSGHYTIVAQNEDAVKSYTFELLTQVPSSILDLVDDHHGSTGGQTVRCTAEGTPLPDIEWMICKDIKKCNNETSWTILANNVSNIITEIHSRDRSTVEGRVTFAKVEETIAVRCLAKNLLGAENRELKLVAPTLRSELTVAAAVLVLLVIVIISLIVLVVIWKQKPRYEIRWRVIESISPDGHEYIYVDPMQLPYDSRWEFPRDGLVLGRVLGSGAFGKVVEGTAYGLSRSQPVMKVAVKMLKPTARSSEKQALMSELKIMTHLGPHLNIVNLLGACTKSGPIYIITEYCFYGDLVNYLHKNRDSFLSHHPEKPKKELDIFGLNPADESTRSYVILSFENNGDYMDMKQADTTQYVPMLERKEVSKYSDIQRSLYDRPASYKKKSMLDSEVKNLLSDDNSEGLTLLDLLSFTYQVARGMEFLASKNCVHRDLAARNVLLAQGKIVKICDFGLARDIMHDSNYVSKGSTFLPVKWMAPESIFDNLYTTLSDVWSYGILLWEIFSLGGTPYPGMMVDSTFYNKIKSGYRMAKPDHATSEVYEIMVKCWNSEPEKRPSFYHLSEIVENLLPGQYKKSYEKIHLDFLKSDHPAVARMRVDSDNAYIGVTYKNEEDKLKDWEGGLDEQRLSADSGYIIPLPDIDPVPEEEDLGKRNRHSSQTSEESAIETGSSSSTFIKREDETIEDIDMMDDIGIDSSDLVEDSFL
140 purified human kinases (Homo sapiens, UniProt Q86Z02), sequence (Q86Z02 whole entry): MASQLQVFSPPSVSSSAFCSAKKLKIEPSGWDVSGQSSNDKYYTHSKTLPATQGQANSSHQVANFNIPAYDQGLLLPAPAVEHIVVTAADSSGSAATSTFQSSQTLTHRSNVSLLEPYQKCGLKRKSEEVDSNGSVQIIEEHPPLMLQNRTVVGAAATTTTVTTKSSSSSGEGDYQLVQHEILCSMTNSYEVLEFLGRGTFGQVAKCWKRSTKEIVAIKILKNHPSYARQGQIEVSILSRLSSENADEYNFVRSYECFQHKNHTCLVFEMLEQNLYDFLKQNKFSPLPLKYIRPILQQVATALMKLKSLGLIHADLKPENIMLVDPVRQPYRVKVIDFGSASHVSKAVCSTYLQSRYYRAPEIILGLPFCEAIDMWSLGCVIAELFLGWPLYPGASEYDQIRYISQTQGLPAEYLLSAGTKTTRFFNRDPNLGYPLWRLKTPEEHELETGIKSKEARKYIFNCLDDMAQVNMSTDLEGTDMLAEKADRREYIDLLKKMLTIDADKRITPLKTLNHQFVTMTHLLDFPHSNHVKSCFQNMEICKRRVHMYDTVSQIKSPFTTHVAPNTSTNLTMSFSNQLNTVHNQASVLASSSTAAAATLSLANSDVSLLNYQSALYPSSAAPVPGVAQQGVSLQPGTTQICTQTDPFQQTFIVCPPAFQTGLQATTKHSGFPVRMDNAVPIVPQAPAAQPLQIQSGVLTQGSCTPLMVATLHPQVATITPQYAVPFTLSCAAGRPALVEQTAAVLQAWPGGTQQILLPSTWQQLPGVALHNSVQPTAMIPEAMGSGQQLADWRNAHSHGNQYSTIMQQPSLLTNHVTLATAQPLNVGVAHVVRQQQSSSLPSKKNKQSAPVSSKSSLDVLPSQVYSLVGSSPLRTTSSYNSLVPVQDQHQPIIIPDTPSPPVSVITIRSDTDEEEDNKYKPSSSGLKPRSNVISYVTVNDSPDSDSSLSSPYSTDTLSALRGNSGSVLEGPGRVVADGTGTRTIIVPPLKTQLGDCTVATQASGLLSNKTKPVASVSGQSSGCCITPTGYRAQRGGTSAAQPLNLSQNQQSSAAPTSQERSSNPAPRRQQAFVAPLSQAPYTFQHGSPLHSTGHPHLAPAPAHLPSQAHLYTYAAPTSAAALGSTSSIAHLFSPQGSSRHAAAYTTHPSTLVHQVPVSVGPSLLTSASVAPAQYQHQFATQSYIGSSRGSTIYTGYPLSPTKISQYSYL
140 purified human kinases (Homo sapiens, UniProt P53779), sequence (P53779 whole entry): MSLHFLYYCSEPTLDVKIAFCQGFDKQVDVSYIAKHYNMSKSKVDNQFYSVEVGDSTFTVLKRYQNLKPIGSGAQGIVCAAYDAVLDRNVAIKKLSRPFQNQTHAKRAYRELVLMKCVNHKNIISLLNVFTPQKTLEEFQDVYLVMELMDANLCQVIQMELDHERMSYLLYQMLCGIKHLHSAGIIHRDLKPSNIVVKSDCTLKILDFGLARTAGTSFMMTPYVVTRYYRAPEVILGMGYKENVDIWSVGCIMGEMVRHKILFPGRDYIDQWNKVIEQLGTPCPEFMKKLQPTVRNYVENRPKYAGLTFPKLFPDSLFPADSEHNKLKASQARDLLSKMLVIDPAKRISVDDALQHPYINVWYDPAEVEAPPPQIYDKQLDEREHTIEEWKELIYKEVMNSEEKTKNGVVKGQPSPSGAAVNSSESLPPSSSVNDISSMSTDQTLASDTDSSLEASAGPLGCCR
140 purified human kinases (Homo sapiens, UniProt Q06187), sequence (Q06187 whole entry): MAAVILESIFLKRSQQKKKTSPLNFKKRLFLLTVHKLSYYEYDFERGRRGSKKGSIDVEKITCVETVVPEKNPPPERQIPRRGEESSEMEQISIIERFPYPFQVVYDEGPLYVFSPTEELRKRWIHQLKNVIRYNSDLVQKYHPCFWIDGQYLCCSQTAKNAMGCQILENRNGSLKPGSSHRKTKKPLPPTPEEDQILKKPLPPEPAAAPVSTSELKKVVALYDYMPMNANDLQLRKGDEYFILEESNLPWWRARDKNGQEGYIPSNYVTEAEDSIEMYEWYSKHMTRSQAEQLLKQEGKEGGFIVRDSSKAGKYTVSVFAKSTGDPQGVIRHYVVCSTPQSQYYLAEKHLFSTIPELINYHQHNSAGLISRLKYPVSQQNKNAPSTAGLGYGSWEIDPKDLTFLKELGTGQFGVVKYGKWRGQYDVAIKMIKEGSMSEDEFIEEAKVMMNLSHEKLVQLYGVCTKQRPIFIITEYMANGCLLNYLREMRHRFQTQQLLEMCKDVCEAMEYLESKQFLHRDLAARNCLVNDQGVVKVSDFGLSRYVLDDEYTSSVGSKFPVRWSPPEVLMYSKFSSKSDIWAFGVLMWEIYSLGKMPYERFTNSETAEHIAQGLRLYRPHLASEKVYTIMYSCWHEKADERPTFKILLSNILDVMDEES

CC(=O)[O-].CC(=O)[O-].CC(=O)[O-].CC(=O)[O-].CC(=O)[O-].CC(=O)[O-].[Zn+2].[Zn+2].[Zn+2].c1ccc(-c2csc(NCCN(CCNc3nc(-c4ccccn4)cs3)CCNc3nc(-c4ccccn4)cs3)n2)nc1.c1ccc(-c2csc(NCCN(CCNc3nc(-c4ccccn4)cs3)CCNc3nc(-c4ccccn4)cs3)n2)nc1 [[L2Zn3]6+]
% Inhibition, Mean ([1]; DYRK3): 30% | % Inhibition, Run 1 / Run 2 ([1]; DYRK3): 32% and 28% | mean % activity ([1]; DYRK3): 70% | % activity ([1]; DYRK3, duplicate runs): 68% and 72% | % Inhibition, Mean ([2]; PIM1): 26% | % Inhibition, Run 1 / Run 2 ([2]; PIM1): 28% and 23% | mean % activity ([2]; PIM1): 74% | % activity ([2]; PIM1, duplicate runs): 72% and 77% | % Inhibition, Mean [3]: 24% | % Inhibition, Run 1 / Run 2 [3]: 27% and 22% | mean % activity [3]: 76% | % activity ([3]; duplicate runs): 74% and 78% | % Inhibition, Mean ([4]; JAK3): 17% | mean % activity ([4]; JAK3): 83% | % activity ([4]; JAK3, duplicate runs): 66% and 99% | % Inhibition, Mean ([5]; JNK3): 33% | % Inhibition, Run 1 / Run 2 ([5]; JNK3): 42% and 24% | mean % activity ([5]; JNK3): 67% | % activity ([5]; JNK3, duplicate runs): 58% and 76% | % Inhibition, Mean [6]: 47% | % Inhibition, Run 1 / Run 2 [6]: 56% and 39% | mean % activity [6]: 53% | % activity ([6]; duplicate runs): 45% and 61% | % Inhibition, Mean ([7]; PRK2): 71% | % Inhibition, Run 1 / Run 2 ([7]; PRK2): 77% and 65% | mean % activity ([7]; PRK2): 29% | % activity ([7]; PRK2, duplicate runs): 23% and 35% | % Inhibition, Mean ([8]; HIPK1): 14% | mean % activity ([8]; HIPK1): 86% | % activity ([8]; HIPK1, duplicate runs): 92% and 81%

[Cu+2].[Cu+2].[Cu+2].c1ccc(-c2csc(NCCN(CCNc3nc(-c4ccccn4)cs3)CCNc3nc(-c4ccccn4)cs3)n2)nc1.c1ccc(-c2csc(NCCN(CCNc3nc(-c4ccccn4)cs3)CCNc3nc(-c4ccccn4)cs3)n2)nc1 [[L2Cu3]6+]
% Inhibition Run 1 ([1]; DYRK3): 42.6% | % Inhibition Run 2 ([1]; DYRK3): 40.9% | % Inhibition, Mean ([1]; DYRK3): 42% | mean % activity ([1]; DYRK3): 58% | % activity ([1]; DYRK3, Run 1): 57.4% | % activity ([1]; DYRK3, Run 2): 59.1% | % Inhibition Run 1 ([2]; PIM1): 53.7% | % Inhibition Run 2 ([2]; PIM1): 42% | % Inhibition, Mean ([2]; PIM1): 48% | mean % activity ([2]; PIM1): 52% | % activity ([2]; PIM1, Run 1): 46.3% | % activity ([2]; PIM1, Run 2): 58% | % Activation, Mean value [3]: 4.7% | % Inhibition Run 1 [3]: 10.8% | % Inhibition Run 2 [3]: -20.2% | % Inhibition, Mean [3]: -4.7% | mean % activity [3]: 105% | % activity ([3]; Run 1): 89.2% | % activity ([3]; Run 2): 120.2% | % Inhibition Run 1 ([4]; JAK3): 39.3% | % Inhibition Run 2 ([4]; JAK3): 44.6% | % Inhibition, Mean ([4]; JAK3): 42% | mean % activity ([4]; JAK3): 58% | % activity ([4]; JAK3, Run 1): 60.7% | % activity ([4]; JAK3, Run 2): 55.4% | % Inhibition Run 1 ([5]; JNK3): 62% | % Inhibition Run 2 ([5]; JNK3): 41.6% | % Inhibition, Mean ([5]; JNK3): 52% | mean % activity ([5]; JNK3): 48% | % activity ([5]; JNK3, Run 1): 38% | % activity ([5]; JNK3, Run 2): 58.4% | % Inhibition Run 1 [6]: 88.8% | % Inhibition Run 2 [6]: 82.3% | % Inhibition, Mean [6]: 86% | mean % activity [6]: 14% | % activity ([6]; Run 1): 11.2% | % activity ([6]; Run 2): 17.7% | % Inhibition Run 1 ([7]; PRK2): 87.9% | % Inhibition Run 2 ([7]; PRK2): 85.6% | % Inhibition, Mean ([7]; PRK2): 87% | mean % activity ([7]; PRK2): 13% | % activity ([7]; PRK2, Run 1): 12.1% | % activity ([7]; PRK2, Run 2): 14.4% | % Inhibition Run 1 ([8]; HIPK1): 90.8% | % Inhibition Run 2 ([8]; HIPK1): 84.1% | % Inhibition, Mean ([8]; HIPK1): 87% | mean % activity ([8]; HIPK1): 13% | % activity ([8]; HIPK1, Run 1): 9.2% | % activity ([8]; HIPK1, Run 2): 15.9%
